Measurements: patent US10981932B2, “Macrocyclic indole derivatives” (Bayer Aktiengesellschaft, priority 2016, dated 2021)
Read-outs that look alike come from different tables or passages of the source.

What was measured:
SUDHL10 [1] = assay: Anti-proliferative effect (CellTiter-Glo, 72 h), SUDHL10; assay type: cell-based; conditions: Homo sapiens, SU-DHL10, 72 h, SUDHL10 cells, antiproliferation, 72 h incubation, median, read-out: Antiproli SUDHL10 [M] (median)
Description: Assessment of the Anti-Proliferative Effect of Compounds in Different Cell Lines
The impact of compounds on the proliferation of different cell lines was assessed using the CellTiter-Glo® Luminescent Cell Viability reagent from Promega (G7573). Of note, SUDHL10 and SUDHL5 (DLBCL), NCI-H929 (Multiple Myeloma), A2780 (ovarian carcinoma) as well as MV-4-11(AML) cells are sensitive to MCL-1 inhibition.
In parallel, cells were plated in a reference (day 0) plate for time zero determination.
Rim wells were excluded. The cells were incubated for 72 h hours in a humidified incubator at 37° C. The day 0 plate was measured by adding 30 μl/well of CTG solution (CellTiter-Glo® Luminescent Cell Viability reagent, Promega G7573) to time zero wells in the reference plate followed by a 10 minutes incubation and luminescence reading at 0.1 ms, using the PHERAstar FS microplate reader (BMG Labtech).
After 72 h incubation, the treated plates were measured in the same way as the day 0 plate mentioned above.

SUDHL5 [2] = assay: Induction of caspase-3/7 activity (Caspase-Glo 3/7), SUDHL5; assay type: cell-based; conditions: Homo sapiens, SU-DHL-5, 3 h, caspase-3/7 induction, SUDHL5 cells, 3 h treatment; median
In short: (§1)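 A 3 h, 37 °C compound incubation precedes the Caspase-Glo 3/7 read. After subtracting medium-only signal, EC50s are fitted against the reference compound's maximal caspase induction.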

SUDHL10 [3] = assay: Induction of cytotoxicity (CellTiter-Glo, 5 h), SUDHL10; conditions: Homo sapiens, SU-DHL10, 5 h, read-out: Cytotox SUDHL10 [M] (median), SUDHL10 cells, cytotoxicity induction, CellTiter-Glo, 5 h incubation, median
A2780 = assay: Anti-proliferative effect (CellTiter-Glo, 72 h), A2780; assay type: cell-based; conditions: A2780 cells, median, read-out: IC50 antiproliferation assay A2780 [M] (median)
In short: (§2)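 Plate cells alongside a separate day 0 reference plate. Read the reference plate at once with CellTiter-Glo. Incubate treated cells 72 h at 37 °C, then read them the same way by luminescence.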

SUDHL5 [4] = assay: Induction of cytotoxicity (CellTiter-Glo, 5 h), SUDHL5; conditions: Homo sapiens, SU-DHL-5, 5 h, read-out: Cytotox SUDHL5 [M] (median), SUDHL5 cells, cytotoxicity induction, CellTiter-Glo, 5 h incubation, median
SUDHL10 [5] = assay: Induction of caspase-3/7 activity (Caspase-Glo 3/7), SUDHL10; assay type: cell-based; conditions: Homo sapiens, SU-DHL10, 3 h, caspase-3/7 induction, SUDHL10 cells, 3 h treatment; median
In short: as §1

SUDHL5 [6] = assay: Anti-proliferative effect (CellTiter-Glo, 72 h), SUDHL5; assay type: cell-based; conditions: Homo sapiens, SU-DHL-5, 72 h, SUDHL5 cells, antiproliferation, 72 h incubation, median, read-out: Antiproli SUDHL5 [M] (median)
In short: as §2

MCL-1 = MCL-1 (Homo sapiens, UniProt Q07820); assay: Protein-protein interaction assay MCL-1/Noxa BH3 peptide (MCL-1 assay), TR-FRET; assay type: binding; conditions: MBP-MCL-1 / Noxa BH3-derived peptide, median
In short: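 Steady-state competition, MCL-1/Noxa BH3, TR-FRET readout; 1 nM MBP-MCL-1, 11-point dose series 0.1 nM–20 μM; overnight 4 °C equilibration; 4-parameter IC50.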

Chain of MCL-1 (Q07820 whole entry): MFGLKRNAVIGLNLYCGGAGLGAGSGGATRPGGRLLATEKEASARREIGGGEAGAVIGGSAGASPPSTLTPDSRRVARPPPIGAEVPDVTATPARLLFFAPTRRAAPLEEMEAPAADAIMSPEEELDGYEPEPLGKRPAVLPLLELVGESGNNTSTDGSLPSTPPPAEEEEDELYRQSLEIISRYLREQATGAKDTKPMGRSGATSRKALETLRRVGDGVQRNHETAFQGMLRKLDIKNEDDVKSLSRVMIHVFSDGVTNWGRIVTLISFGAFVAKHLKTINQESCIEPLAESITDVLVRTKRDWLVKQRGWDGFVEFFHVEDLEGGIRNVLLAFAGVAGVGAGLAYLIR

SMILES	IC50 (SUDHL10 [1]) [M]	EC50 (SUDHL5 [2]) [µM]	IC50 (A2780) [M]	IC50 (A2780; Homo sapiens, A2780, 72 h) [M]	EC50 (SUDHL10 [5]) [µM]	IC50 (SUDHL5 [6]) [M]	IC50 (MCL-1) [µM]	IC50 (SUDHL10 [3]) [M]	IC50 (SUDHL5 [4]) [M]
Cc1nn(C)c2c1-c1cccc3c(CCCOc4cccc5cc(F)ccc45)c(C(=O)O)n(c13)CCCOC2 (racemic) [Example 046, (rac)-1-{3-[(6-fluoronaphthalen-1-yl)oxy]propyl}-9,11-dimethyl-5,6,8,9-tetrahydro-4H-pyrazolo[4′,3′:8,9][1,5]oxazecino[7,6,5-hi]indole-2-carboxylic Acid]	3.94e-06	5.7	–	2.65e-05	17	6.27e-06	0.0108	2.33e-05	6.09e-06
Cn1nc2c(c1CN1CCOCC1)-c1cccc3c(CCCOc4cccc5ccccc45)c(C(=O)O)n(c13)CCOCCOC2 (racemic) [Example 087]	1.41e-05	> 33	–	> 3.3e-05	> 33	> 3.3e-05	0.097	> 3.3e-05	> 3.3e-05
Cc1c2c(nn1C1CC1)COCCCCn1c(C(=O)O)c(CCCOc3cccc4ccccc34)c3cccc-2c31 (racemic) [Example 092, (rac)-2-cyclopropyl-3-methy-7-[3-(naphthalen-1-yloxy)propyl]-2,10,11,12,13,15-hexahydropyrazolo[4′,3′:9,10][1,6]oxazacycloundecino[8,7,6-hi]indole-8-carboxylic Acid]	2.06e-06	6.16	–	2.48e-05	20.2	8.25e-06	0.00708	2.23e-05	6.75e-06
COCc1c2c(nn1C)COCCCCn1c(C(=O)O)c(CCCOc3cccc4ccccc34)c3cccc-2c31 (racemic) [Example 099, (rac)-3-(methoxymethyl)-2-methyl-7-[3-(naphthalen-1-yloxy)propyl]-2,10,11,12,13,15-hexahydropyrazolo[4′,3′:9,10][1,6]oxazacycloundecino[8,7,6-hi]indole-8-carboxylic Acid]	1.08e-05	5.2	–	2.11e-05	12.8	8.47e-06	0.0043	1.75e-05	3.86e-06
CCNCc1nn(C)c2c1-c1cccc3c(CCCOc4cccc5ccccc45)c(C(=O)O)n(c13)CCCCOC2 (racemic) [Example 156, (rac)-3-[(ethylamino)methyl]-1-methyl-7-[3-(naphthalen-1-yloxy)propyl]-1,10,11,12,13,15-hexahydropyrazolo[4′,3′:9,10][1,6]oxazacycloundecino[8,7,6-hi]indole-8-carboxylic Acid]	2.23e-05	> 33	–	> 3.3e-05	> 33	> 3.3e-05	0.152	> 3.3e-05	> 3.3e-05
CN1CCCn2c(C(=O)O)c(CCCOc3cccc4ccccc34)c3cccc(c32)-c2c(CN3CCOCC3=O)nn(C)c2C1 (racemic) [Example 157, (rac)-7,9-dimethyl-1-[3-(naphthalen-1-yloxy)propyl]-11-[(3-oxomorpholin-4-yl)methyl]-4,5,6,7,8,9-hexahydropyrazolo[3′,4′:7,8][1,5]diazecino[9,10,1-hi]indole-2-carboxylic Acid]	> 3.3e-05	> 33	–	> 3.3e-05	> 33	> 3.3e-05	0.289	> 3.3e-05	> 3.3e-05

Continued, in another order:

IC50 (SUDHL10 [1]) [M]	EC50 (SUDHL5 [2]) [µM]	IC50 (A2780) [M]	IC50 (A2780; Homo sapiens, A2780, 72 h) [M]	EC50 (SUDHL10 [5]) [µM]	IC50 (SUDHL5 [6]) [M]	IC50 (MCL-1) [µM]	SMILES	IC50 (SUDHL10 [3]) [M]	IC50 (SUDHL5 [4]) [M]
4.93e-06	18.7	2.6e-05	> 3.3e-05	> 33	1.05e-05	0.0127	Cc1nn(C)c2c1-c1cccc3c(CCCOc4cccc5ccccc45)c(C(=O)O)n(c13)CCCOC2 (racemic) [Example 043, (rac)-9,11-dimethyl-1-[3-(naphthalen-1-yloxy)propyl]-5,6,8,9-tetrahydro-4H-pyrazolo[4′,3′:8,9][(1,5]oxazecino[7,6,5-hi]indole-2-carboxylic Acid]	> 3.3e-05	1.79e-05
6.98e-06	14.2	–	1.57e-05	> 33	1.1e-05	0.00318	Cc1cc2c(OCCCc3c(C(=O)O)n4c5c(cccc35)-c3c(C)nn(C)c3COCCCC4)cccc2cc1F (racemic) [Example 049, (rac)-7-{3-[(6-fluoro-7-methylnaphthalen-1-yl)oxy]propyl}-1,3-dimethyl-1,10,11,12,13,15-hexahydropyrazolo[4′,3′:9,10][1,6]oxazacycloundecino[8,7,6-hi]indole-8-carboxylic Acid]	3.14e-05	1.13e-05
2.67e-05	13.5	–	2.35e-05	> 33	1.76e-05	0.00694	CCn1nc(C2CC2)c2c1COCCCCn1c(C(=O)O)c(CCCOc3cccc4ccccc34)c3cccc-2c31 (racemic) [Example 088, (rac)-3-Cyclopropyl-1-ethyl-7-[3-(naphthalen-1-yloxy)propyl]-1,10,11,12,13,15-hexahydropyrazolo[4′,3′:9,10][1,6]oxazacycloundecino[8,7,6-hi]indole-8-carboxylic Acid]	> 3.3e-05	1.1e-05
1.15e-05	> 33	–	2.09e-05	> 33	2.74e-05	0.0827	Cc1nn(CC(F)(F)F)c2c1-c1cccc3c(CCCOc4cccc5ccccc45)c(C(=O)O)n(c13)C/C=C\COC2 (racemic) [Example 098, (rac)-(11Z)-3-methyl-7-[3-(naphthalen-1-yloxy)propyl]-12-(2,2,2-trifluoroethyl)-1,10,13,15-tetrahydropyrazolo[4′,3′:9,10][1,6]oxazacycloundecino[8,7,6-hi]indole-8-carboxylic Acid]	> 3.3e-05	2.94e-05
9.89e-06	8.27	–	1.49e-05	23.9	1.01e-05	0.00268	COCc1c2c(nn1C)COCCCCn1c(C(=O)O)c(CCCOc3cccc4c3CCCC4)c3cccc-2c31 (racemic) [Example 105, (rac)-3-(methoxymethyl)-2-methyl-7-[3-(5,6,7,8-tetrahydronaphthalen-1-yloxy)propyl]-2,10,11,12,13,15-hexahydropyrazolo[4′,3′:9,10][1,6]oxazacycloundecino[8,7,6-hi]indole-8-carboxylic Acid]	1.92e-05	7.19e-06
1.26e-05	15	–	1.62e-05	> 33	1.36e-05	0.0521	Cc1nn(CC(F)(F)F)c2c1-c1cccc3c(CCCOc4cccc5c4CCCC5)c(C(=O)O)n(c13)CCCCOC2 (racemic) [Example 161, (rac)-3-methyl-7-[3-(5,6,7,8-tetrahydronaphthalen-1-yloxy)propyl]1-(2,2,2-trifluoroethyl)-1,10,11,12,13,15-hexahydropyrazolo[4′,3′:9,10][1,6]oxazacycloundecino[8,7,6-hi]indole-8-carboxylic Acid]	> 3.3e-05	1.06e-05
1.69e-05	12	–	2.03e-05	> 33	1.6e-05	0.0107	COCCn1nc(C2CC2)c2c1COCCCCn1c(C(=O)O)c(CCCOc3cccc4c3CCCC4)c3cccc-2c31 (racemic) [Example 164, (rac)-3-Cyclopropyl-1-(2-methoxyethyl)-7-[3-(5,6,7,8-tetrahydronaphthalen-1-yloxy)propyl]-1,10,11,12,13,15-hexahydropyrazolo[4′,3′:9,10][1,6]oxazacycloundecino[8,7,6-hi]indole-8-carboxylic Acid]	3.07e-05	9.23e-06
